Data: ChEMBL document CHEMBL2439973, “Discovery of VU0409106: A negative allosteric modulator of mGlu5 with activity in a mouse model of anxiety” (Bioorg Med Chem Lett, 2013)

Legend:
[1] = Ratio of drug level in brain to plasma in CD-1 mouse at 10 mg/kg, ip by LC-MS/MS analysis; assay type: ADME, organism-based; set-up: dose 10 mg/kg, route intraperitoneal; conditions: brain and plasma, read-out: BPR
Brain [2] = assay: AUC in CD-1 mouse brain at 10 mg/kg, ip by LC-MS/MS analysis; assay type: ADME, organism-based; set-up: dose 10 mg/kg, route intraperitoneal; conditions: in vivo
Plasma [3] = assay: AUC in CD-1 mouse plasma at 10 mg/kg, ip by LC-MS/MS analysis; assay type: ADME, organism-based; set-up: dose 10 mg/kg, route intraperitoneal; conditions: in vivo
[4] = Cmax in CD-1 mouse brain at 10 mg/kg, ip by LC-MS/MS analysis; assay type: ADME, organism-based; set-up: dose 10 mg/kg, route intraperitoneal
Brain [5] = assay: Tmax in CD-1 mouse brain at 10 mg/kg, ip by LC-MS/MS analysis; assay type: ADME, organism-based; set-up: dose 10 mg/kg, route intraperitoneal; conditions: in vivo
Plasma [6] = assay: Cmax in CD-1 mouse plasma at 10 mg/kg, ip by LC-MS/MS analysis; assay type: ADME, organism-based; set-up: dose 10 mg/kg, route intraperitoneal; conditions: in vivo
Plasma [7] = assay: Tmax in CD-1 mouse plasma at 10 mg/kg, ip by LC-MS/MS analysis; assay type: ADME, organism-based; set-up: dose 10 mg/kg, route intraperitoneal; conditions: in vivo
Cytochrome P450 3A4 = Cytochrome P450 3A4 (Homo sapiens, UniProt P08684); assay: Inhibition of CYP3A4 in human liver microsomes in presence of NADPH; assay type: ADME, Microsome
Cytochrome P450 3A4, sequence (P08684 whole entry): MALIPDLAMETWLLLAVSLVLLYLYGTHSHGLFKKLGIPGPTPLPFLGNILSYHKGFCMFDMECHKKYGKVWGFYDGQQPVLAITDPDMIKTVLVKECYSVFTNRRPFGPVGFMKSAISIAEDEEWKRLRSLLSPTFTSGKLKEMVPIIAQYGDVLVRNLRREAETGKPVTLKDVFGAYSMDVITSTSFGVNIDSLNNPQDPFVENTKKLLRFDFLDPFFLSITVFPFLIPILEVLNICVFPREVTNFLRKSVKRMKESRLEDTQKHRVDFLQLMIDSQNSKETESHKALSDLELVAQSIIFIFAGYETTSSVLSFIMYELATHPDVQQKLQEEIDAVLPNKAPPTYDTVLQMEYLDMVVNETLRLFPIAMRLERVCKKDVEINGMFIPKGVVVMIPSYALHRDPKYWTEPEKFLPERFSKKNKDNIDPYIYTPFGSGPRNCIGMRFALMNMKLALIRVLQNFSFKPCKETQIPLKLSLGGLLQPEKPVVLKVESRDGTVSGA

Brain [8] = assay: Fraction unbound in mouse brain homogenates by equilibrium dialysis technique; assay type: ADME, tissue-based; conditions: brain homogenate
[9] = molecular target: Metabotropic glutamate receptor 5 (Rattus norvegicus, UniProt P31424); assay: Negative allosteric modulation of rat mGlu5 receptor expressed in HEK293A cells assessed as inhibition of glutamate-induced calcium mobilization preincubated for 140 seconds prior to glutamate-stimulation measured after 60 seconds; assay type: functional, cell-based, HEK293-A
Metabotropic glutamate receptor 5, sequence (P31424 whole entry): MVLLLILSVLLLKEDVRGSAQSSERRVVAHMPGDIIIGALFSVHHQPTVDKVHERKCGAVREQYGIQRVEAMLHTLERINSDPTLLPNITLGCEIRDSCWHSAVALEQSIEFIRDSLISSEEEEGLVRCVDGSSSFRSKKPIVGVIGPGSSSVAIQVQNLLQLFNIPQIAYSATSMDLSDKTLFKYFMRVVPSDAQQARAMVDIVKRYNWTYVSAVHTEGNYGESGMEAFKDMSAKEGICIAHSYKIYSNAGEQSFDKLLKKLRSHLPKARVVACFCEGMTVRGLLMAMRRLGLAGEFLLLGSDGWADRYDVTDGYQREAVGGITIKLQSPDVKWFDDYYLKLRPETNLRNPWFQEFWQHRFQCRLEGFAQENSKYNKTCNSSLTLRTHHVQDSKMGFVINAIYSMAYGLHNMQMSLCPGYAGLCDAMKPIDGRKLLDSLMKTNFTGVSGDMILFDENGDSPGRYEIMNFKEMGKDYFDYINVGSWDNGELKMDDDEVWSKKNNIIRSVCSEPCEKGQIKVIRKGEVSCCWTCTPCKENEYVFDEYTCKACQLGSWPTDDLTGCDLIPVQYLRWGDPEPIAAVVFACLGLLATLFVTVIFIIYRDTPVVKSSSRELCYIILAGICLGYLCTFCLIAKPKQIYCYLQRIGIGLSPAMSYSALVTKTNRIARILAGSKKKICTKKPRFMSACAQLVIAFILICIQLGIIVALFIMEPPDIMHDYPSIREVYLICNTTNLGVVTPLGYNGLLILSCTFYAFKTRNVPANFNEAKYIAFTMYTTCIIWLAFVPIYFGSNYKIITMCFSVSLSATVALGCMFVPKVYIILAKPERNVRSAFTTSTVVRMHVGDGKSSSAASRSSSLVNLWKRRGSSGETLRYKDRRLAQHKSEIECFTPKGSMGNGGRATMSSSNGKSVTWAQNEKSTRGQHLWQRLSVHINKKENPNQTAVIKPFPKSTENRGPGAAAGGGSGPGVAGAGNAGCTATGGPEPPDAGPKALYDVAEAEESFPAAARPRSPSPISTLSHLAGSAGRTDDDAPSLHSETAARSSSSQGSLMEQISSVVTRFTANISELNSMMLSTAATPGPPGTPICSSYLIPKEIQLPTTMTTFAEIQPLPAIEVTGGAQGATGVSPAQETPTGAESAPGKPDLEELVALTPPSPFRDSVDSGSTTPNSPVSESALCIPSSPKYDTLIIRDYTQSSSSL

[10] = molecular target: Metabotropic glutamate receptor 5 (Rattus norvegicus) (UniProt P31424); assay: Negative allosteric modulation of rat mGlu5 receptor expressed in HEK293A cells assessed as inhibition of glutamate-induced calcium mobilization at 30 uM preincubated for 140 seconds prior to glutamate-stimulation measured after 60 seconds relative to glutamate; assay type: functional, cell-based; conditions: HEK293-A
Metabotropic glutamate receptor 5 (Rattus norvegicus), sequence (P31424 21-1203 limits assumed): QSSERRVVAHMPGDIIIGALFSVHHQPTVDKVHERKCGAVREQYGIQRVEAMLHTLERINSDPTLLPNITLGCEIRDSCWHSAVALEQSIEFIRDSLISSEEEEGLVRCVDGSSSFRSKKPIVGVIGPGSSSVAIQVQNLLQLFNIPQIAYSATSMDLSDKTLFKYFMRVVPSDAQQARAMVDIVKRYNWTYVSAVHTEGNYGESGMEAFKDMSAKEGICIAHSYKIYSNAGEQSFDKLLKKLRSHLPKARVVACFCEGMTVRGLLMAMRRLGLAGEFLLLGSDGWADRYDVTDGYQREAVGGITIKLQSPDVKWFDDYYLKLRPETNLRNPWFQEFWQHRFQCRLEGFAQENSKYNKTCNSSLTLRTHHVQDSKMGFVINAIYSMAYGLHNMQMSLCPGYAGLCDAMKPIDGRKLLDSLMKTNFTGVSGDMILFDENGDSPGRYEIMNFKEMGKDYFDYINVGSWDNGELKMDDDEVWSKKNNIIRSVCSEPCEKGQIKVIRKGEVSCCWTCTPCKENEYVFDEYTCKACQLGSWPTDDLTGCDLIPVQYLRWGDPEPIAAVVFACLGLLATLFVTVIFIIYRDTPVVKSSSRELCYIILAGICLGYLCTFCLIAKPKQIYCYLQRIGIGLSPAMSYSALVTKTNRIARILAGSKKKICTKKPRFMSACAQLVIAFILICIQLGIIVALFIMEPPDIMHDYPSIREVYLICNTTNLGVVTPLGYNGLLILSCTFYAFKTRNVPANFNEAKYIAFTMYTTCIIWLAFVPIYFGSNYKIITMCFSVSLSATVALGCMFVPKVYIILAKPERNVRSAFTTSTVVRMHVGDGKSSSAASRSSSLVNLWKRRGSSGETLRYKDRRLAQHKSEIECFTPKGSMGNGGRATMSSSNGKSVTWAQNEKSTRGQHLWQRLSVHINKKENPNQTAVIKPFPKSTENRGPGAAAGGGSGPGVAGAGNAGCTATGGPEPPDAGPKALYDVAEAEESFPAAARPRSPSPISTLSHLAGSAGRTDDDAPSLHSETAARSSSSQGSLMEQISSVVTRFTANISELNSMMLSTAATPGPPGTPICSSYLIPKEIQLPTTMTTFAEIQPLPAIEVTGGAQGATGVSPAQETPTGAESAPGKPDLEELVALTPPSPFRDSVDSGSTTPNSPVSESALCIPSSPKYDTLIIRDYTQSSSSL

SMILES | IC50 [9] [nM] | %max [10] [%] | further results
O=C(Nc1ccc(F)cn1)c1cc(Cl)cc(Oc2cncnc2)c1 |  |  | Kp [1]: 0.93; AUC (Brain [2]): 365 ng·h/g; AUC (Plasma [3]): 391 ng·h/mL; Cmax [4]: 311 ng/g; Tmax (Brain [5]): 15 min; Cmax (Plasma [6]): 303 ng/mL; Tmax (Plasma [7]): 30 min; IC50 (Cytochrome P450 3A4): 6200 nM; Fu (Brain [8]): 0.08
O=C(Nc1nc(C(F)F)cs1)c1cc(Cl)cc(Oc2cncnc2)c1 | 310 |  | 
N#Cc1cncc(Oc2cc(Cl)cc(C(=O)Nc3ccc(F)cn3)c2)c1 | 27 | 1.7 | IC50 (Cytochrome P450 3A4): 1700 nM; Fu (Brain [8]): 0.016
O=C(Nc1ccc(F)cn1)c1cc(Cl)cc(Oc2cncc(F)c2)c1 | 25 | 1.1 | IC50 (Cytochrome P450 3A4): 1300 nM; Fu (Brain [8]): 0.007
O=C(Nc1ccc(F)cn1)c1cccc(Oc2cccnc2)c1 | 3780 |  | 
Cc1csc(NC(=O)c2cc(Cl)cc(Oc3cncnc3)c2)n1 |  |  | IC50 (Cytochrome P450 3A4): 2200 nM; Fu (Brain [8]): 0.025
Cc1cccc(NC(=O)c2cc(Cl)cc(Oc3cncc(C#N)c3)c2)n1 | 10 | 1.6 | 
N#Cc1cc(Oc2cncnc2)cc(C(=O)Nc2ccc(F)cn2)c1 | 318 | 1.1 | 
Cc1cccc(NC(=O)c2cc(Cl)cc(Oc3cncnc3)c2)n1 |  |  | IC50 (Cytochrome P450 3A4): 4300 nM; Fu (Brain [8]): 0.052
Cc1cccc(NC(=O)c2cc(Cl)cc(Oc3cncc(F)c3)c2)n1 | 7.5 | 1.8 | IC50 (Cytochrome P450 3A4): 700 nM; Fu (Brain [8]): 0.003
Cc1csc(NC(=O)c2cc(Oc3cncnc3)cc(C(F)(F)F)c2)n1 | 283 | 1.7 | 
Cc1cccc(NC(=O)c2cc(Cl)cc(Oc3cnc(C)nc3)c2)n1 | 96 | 1.6 | 
O=C(Nc1ccc(Cl)cn1)c1cc(Cl)cc(Oc2cncnc2)c1 | 103 |  | 
O=C(Nc1cccc(Cl)c1)c1cccc(Oc2cccnc2)c1 | 1960 | 1.6 | 
O=C(Nc1ccc(F)cn1)c1cc(Oc2cncnc2)cc(C(F)(F)F)c1 | 5530 | 3.2 | 
Cc1csc(NC(=O)c2cccc(Oc3cncnc3)c2)n1 | 205 |  | 
O=C(Nc1cccc(F)n1)c1cc(Cl)cc(Oc2cncnc2)c1 |  |  | IC50 (Cytochrome P450 3A4): < 100 nM; Fu (Brain [8]): 0.057
Cc1ncc(Oc2cc(Cl)cc(C(=O)Nc3ccc(F)cn3)c2)cn1 | 4470 | 2.6 | 
O=C(Nc1ccc(F)c(C(F)F)n1)c1cc(Cl)cc(Oc2cncnc2)c1 | 502 |  | 
Cc1cccc(NC(=O)c2cccc(Oc3cccnc3)c2)c1 | 2190 | 1.4 | 
COc1cccc(NC(=O)c2cc(F)cc(Oc3cncnc3)c2)n1 | 668 |  | 
Cc1cc(Oc2cncnc2)cc(C(=O)Nc2ccc(F)cn2)c1 | 19 |  | 
Nc1cc(NC(=O)c2cccc(Cl)c2)cc(Oc2cccnc2)c1 | 284 | 1.3 | 
Cc1nc(NC(=O)c2cc(Cl)cc(Oc3cncnc3)c2)ccc1F | 50 |  | 
Cc1nc(NC(=O)c2cc(F)cc(Oc3cncnc3)c2)sc1F | 54 |  | 
O=C(Nc1nccs1)c1cc(F)cc(Oc2cncnc2)c1 | 1790 |  | 
O=C(Nc1cccc(Cl)n1)c1cc(Cl)cc(Oc2cncnc2)c1 |  |  | IC50 (Cytochrome P450 3A4): 1900 nM; Fu (Brain [8]): 0.019
Cc1csc(NC(=O)c2cccc(Oc3cccnc3)c2)n1 | 772 |  | 
CCc1ccnc(NC(=O)c2cc(Cl)cc(Oc3cncnc3)c2)c1 | 4450 |  | 
Cc1cc(NC(=O)c2cc(Cl)cc(Oc3cncnc3)c2)ncc1F | 3250 |  | 
